{"source": "paper PMC4080778", "about": "“Steroid conversion with CYP106A2 – production of pharmaceutically interesting DHEA metabolites” (Microbial Cell Factories, 2014)", "biological_target": "T1, CYP106A2 (Priestia megaterium, UniProt Q06069)", "T1 sequence (Q06069 1-410)": "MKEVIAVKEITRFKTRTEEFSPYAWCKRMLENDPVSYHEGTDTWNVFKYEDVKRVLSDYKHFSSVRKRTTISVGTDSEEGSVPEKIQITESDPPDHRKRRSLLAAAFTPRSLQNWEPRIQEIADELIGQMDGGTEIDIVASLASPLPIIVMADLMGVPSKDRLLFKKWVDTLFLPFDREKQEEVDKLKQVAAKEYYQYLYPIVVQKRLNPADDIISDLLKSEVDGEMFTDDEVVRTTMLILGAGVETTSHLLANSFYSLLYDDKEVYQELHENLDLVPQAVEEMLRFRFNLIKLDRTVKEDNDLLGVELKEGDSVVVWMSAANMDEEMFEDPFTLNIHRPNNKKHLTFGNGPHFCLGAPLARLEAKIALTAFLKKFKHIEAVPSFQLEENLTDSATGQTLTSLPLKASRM", "assay": "UV-vis difference spectroscopy titration (type I high-spin shift, tandem cuvettes)", "format": "binding"}
{"smiles": "C[C@]12CCC(=O)C=C1CC[C@@H]1[C@@H]2CC[C@]2(C)C(=O)CC[C@@H]12", "note": "[androstenedione]", "values": [{"measurement": "Kd", "result": "92 ± 11", "unit": "µM"}]}
